Assay results published in ChEMBL document CHEMBL4265998, “NLRP3 Modulators for the Treatment of Autoinflammatory Disorders” (ACS Med Chem Lett, 2018).

Legend:
Toll-like receptor 7 = biological target: T1, Toll-like receptor 7 (Homo sapiens, UniProt Q9NYK1); assay: Agonist activity at TLR7 (unknown origin) expressed in HEK-Blue cells; type: cell-based
T1 sequence (Q9NYK1 whole entry): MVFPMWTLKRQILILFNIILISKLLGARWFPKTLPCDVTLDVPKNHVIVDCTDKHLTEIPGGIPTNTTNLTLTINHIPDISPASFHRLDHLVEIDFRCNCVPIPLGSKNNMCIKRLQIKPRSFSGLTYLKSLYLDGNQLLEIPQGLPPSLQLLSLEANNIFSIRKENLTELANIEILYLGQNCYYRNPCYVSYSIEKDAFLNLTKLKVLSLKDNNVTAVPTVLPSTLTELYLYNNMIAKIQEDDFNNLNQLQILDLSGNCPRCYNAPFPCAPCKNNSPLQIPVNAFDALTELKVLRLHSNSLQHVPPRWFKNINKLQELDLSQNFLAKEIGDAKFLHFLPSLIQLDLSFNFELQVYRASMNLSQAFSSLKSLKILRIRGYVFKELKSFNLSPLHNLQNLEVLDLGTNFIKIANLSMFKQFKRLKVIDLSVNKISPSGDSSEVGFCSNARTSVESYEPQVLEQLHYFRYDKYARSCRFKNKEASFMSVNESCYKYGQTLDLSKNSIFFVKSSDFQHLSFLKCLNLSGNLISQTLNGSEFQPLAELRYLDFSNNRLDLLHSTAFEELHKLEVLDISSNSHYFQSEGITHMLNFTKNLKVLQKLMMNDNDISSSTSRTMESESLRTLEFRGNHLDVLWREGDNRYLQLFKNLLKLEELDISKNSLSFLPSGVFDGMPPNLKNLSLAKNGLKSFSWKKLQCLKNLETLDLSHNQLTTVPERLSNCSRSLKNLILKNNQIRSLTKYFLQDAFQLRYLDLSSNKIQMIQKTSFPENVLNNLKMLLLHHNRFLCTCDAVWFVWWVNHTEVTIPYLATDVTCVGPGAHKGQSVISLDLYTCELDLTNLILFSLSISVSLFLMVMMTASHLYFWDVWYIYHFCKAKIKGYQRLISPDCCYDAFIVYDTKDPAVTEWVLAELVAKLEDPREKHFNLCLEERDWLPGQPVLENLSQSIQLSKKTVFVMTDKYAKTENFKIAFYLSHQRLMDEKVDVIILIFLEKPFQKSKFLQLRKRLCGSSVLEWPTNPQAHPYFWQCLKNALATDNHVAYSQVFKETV

Toll-like receptor 8 = biological target: T2, Toll-like receptor 8 (Homo sapiens, UniProt Q9NR97); assay: Agonist activity at TLR8 (unknown origin) expressed in HEK-Blue cells; type: cell-based
T2 sequence (Q9NR97 whole entry): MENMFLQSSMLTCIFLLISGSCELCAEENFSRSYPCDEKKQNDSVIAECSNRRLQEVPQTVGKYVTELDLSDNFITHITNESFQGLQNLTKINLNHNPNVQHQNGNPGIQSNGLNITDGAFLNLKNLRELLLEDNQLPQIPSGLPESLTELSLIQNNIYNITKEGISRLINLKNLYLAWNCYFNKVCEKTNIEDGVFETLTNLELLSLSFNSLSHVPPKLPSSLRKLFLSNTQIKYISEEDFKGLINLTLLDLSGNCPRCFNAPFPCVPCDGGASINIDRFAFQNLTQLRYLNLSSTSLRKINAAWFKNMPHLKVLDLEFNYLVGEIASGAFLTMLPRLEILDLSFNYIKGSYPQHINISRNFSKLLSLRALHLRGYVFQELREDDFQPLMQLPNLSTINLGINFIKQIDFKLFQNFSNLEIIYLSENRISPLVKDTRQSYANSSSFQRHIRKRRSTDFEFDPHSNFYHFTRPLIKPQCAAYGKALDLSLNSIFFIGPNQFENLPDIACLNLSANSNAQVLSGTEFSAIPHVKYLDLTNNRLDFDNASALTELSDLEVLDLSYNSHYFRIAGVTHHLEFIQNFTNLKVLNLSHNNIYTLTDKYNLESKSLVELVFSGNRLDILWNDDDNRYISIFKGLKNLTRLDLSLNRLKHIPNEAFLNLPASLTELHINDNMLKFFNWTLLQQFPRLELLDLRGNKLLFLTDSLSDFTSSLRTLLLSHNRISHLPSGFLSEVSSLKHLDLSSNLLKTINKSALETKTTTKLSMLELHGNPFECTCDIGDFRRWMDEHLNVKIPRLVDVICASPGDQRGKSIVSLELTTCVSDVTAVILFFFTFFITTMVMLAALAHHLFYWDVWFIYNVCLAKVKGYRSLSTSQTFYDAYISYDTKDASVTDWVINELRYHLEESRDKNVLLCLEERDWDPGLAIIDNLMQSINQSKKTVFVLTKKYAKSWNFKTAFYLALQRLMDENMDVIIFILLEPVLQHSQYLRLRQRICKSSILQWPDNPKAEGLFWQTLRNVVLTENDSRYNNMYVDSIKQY

Structure (SMILES) | EC50 (Toll-like receptor 7) [µM] | EC50 (Toll-like receptor 8) [µM]
CCn1c(CN2CCCC2=O)nc2c(N)nc3cc(-c4cccs4)ccc3c21 | > 100 | > 100
Nc1nc2cc(-c3ccccc3)ccc2c2[nH]c(CN3CCCC3=O)nc12 | > 100 | > 100
Nc1nc2cc(-n3cccn3)ccc2c2[nH]c(CN3C[C@H](c4ccccc4)CC3=O)nc12 | > 100 | > 100
Nc1nc2cc(-c3ccccc3F)ccc2c2[nH]c(CN3CCCC3=O)nc12 | > 100 | > 100
CCC(=O)N(CC)Cc1nc2c(N)nc3cc(-c4ccn[nH]4)ccc3c2n1CC | > 100 | > 100
Cc1cccc(-c2ccc3c(c2)nc(N)c2nc(CN4CCCC4=O)[nH]c23)c1 | > 100 | > 100
CCN(Cc1nc2c(N)nc3cc(-c4cc[nH]n4)ccc3c2n1C)C(=O)OC(C)(C)C | > 100 | > 100
Cc1ccc(-c2ccc3c(c2)nc(N)c2nc(CN4CCCC4=O)[nH]c23)cc1 | > 100 | > 100
CCN(Cc1nc2c(N)nc3cc(C4=CCCC4)ccc3c2[nH]1)C(C)=O | > 100 | > 100
CCN(C)Cc1nc2c(N)nc3cc(-c4cc[nH]n4)ccc3c2[nH]1 | > 100 | > 100
Nc1nc2cc(-c3cccs3)ccc2c2[nH]c(CN3CCCC3=O)nc12 | > 100 | > 100
CCN(Cc1nc2c(N)nc3cc(-c4ccccc4)ccc3c2[nH]1)C(C)=O | > 100 | > 100
